*1 amine or outer side, *2 acyl side, *3 side chain or, on linkers, in order; H or OH if unused. Where a SMILES comes first, the peptide text is derived from it. Side-chain parts run from the residue outwards. [ ]: non-standard residue; d: D form. The star is where a group is joined. C20 diacid = O=C(O)CCCCCCCCCCCCCCCCCCC(=O)*; C18 diacid = O=C(O)CCCCCCCCCCCCCCCCC(=O)*; αMePhe(2-F) = C[C@](N)(Cc1ccccc1F)C(=O)O; γGlu = O=C(O)[C@H](CCC(=O)[*:2])N[*:1]; αMeF = C[C@](N)(Cc1ccccc1)C(=O)O; 4Pal = N[C@@H](Cc1ccncc1)C(=O)O; AEEA = NCCOCCOCC(=O)O; Aib = CC(C)(N)C(=O)O
Tests used:
human GcgR = biological target: T1, human GcgR (Homo sapiens, UniProt P47871); assay: [125I]-Glucagon binding, SPA with WGA beads, 0.1% bacitracin; settings: geometric mean, read-out: hGcgR Ki
T1 construct: expressed in transfected cells; crude membranes
Outline: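 SPA competition binding with WGA beads on crude membranes from HEK293 cells stably expressing hGcgR. Buffer: 25 mM HEPES pH 7.4, 2.5 mM CaCl2, 1 mM MgCl2, 0.1% bacitracin, 0.003% Tween-20; 10-point 3-fold dilutions, NSB with 1 μM Gcg.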

human GLP-1R = biological target: T2, human GLP-1R (Homo sapiens, UniProt P43220); assay: [125I]-GLP-1 binding, SPA with WGA beads, 0.1% bacitracin; settings: geometric mean, read-out: hGLP1R Ki
T2 construct: expressed in transfected cells; crude membranes
Outline: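 Binding buffer was 25 mM HEPES pH 7.4 with 2.5 mM CaCl2, 1 mM MgCl2, 0.1% (w/v) bacitracin, 0.003% Tween-20 and EDTA-free protease inhibitors. Four-parameter regression gave IC50, converted to Ki (geometric mean, SEM, n independent days).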

T2 sequence (P43220 24-463): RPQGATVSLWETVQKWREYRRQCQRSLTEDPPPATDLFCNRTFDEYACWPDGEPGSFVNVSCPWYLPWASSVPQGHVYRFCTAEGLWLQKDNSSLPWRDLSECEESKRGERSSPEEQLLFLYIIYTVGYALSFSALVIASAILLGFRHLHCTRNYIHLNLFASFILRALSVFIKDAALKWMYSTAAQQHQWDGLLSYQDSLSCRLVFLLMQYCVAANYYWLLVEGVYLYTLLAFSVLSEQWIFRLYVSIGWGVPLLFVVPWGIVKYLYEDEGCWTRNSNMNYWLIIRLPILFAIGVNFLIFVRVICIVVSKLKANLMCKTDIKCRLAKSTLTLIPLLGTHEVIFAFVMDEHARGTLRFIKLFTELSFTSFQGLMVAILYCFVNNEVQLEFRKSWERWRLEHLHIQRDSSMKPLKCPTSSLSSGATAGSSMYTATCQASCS
T1 sequence (P47871 26-477): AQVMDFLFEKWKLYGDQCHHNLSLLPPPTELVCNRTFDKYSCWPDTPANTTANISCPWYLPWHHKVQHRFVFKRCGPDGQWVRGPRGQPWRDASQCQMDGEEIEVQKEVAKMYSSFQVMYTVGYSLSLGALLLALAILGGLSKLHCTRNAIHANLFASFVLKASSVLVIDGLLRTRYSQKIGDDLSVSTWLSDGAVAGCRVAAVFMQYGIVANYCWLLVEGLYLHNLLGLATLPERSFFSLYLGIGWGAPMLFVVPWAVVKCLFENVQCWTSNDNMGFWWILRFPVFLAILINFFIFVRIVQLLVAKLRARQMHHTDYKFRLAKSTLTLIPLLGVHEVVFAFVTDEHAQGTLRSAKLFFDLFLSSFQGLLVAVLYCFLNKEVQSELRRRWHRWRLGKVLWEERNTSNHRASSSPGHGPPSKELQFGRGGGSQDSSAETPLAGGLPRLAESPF

Structure (SMILES)	Ki (human GcgR)	Ki (human GLP-1R)
CC[C@H](C)[C@H](NC(=O)[C@H](CO)NC(=O)[C@H](Cc1ccc(O)cc1)NC(=O)[C@H](CC(=O)O)NC(=O)[C@H](CO)NC(=O)[C@@H](NC(=O)[C@H](Cc1ccccc1)NC(=O)[C@@H](NC(=O)CNC(=O)[C@H](CCC(=O)O)NC(=O)[C@@H](C)NC(=O)[C@@H](N)Cc1ccc(O)cc1)[C@@H](C)O)[C@@H](C)CC)C(=O)N[C@@H](CC(C)C)C(=O)N[C@@H](CC(C)C)C(=O)N[C@@H](CC(=O)O)C(=O)N[C@@H](CCCCN)C(=O)N[C@@H](CCCCNC(=O)COCCOCCNC(=O)COCCOCCNC(=O)CC[C@H](NC(=O)CCCCCCCCCCCCCCCCC(=O)O)C(=O)O)C(=O)N[C@@H](C)C(=O)N[C@@H](CCC(N)=O)C(=O)NC(C)(C)C(=O)N[C@@H](CCC(=O)O)C(=O)N[C@@H](Cc1ccccc1)C(=O)N[C@H](C(=O)N[C@@H](CC(N)=O)C(=O)N[C@@H](Cc1c[nH]c2ccccc12)C(=O)N[C@@H](CC(C)C)C(=O)N[C@@H](CC(C)C)C(=O)N[C@@H](C)C(=O)N[C@@H](CCC(N)=O)C(=O)NCC(=O)N1CCC[C@H]1C(=O)N[C@@H](CO)C(=O)N[C@@H](CO)C(=O)NCC(=O)N[C@@H](C)C(=O)N1CCC[C@H]1C(=O)N1CCC[C@H]1C(=O)N1CCC[C@H]1C(=O)N[C@@H](CO)C(N)=O)C(C)C [Example 20] (H-Y[dA]EGTFISDYSILLDKK([AEEA-AEEA-γGlu-C18 diacid])AQ[Aib]EFVNWLLAQGPSSGAPPPS-NH2)	216 nM	79.8 nM
CC[C@H](C)[C@H](NC(=O)[C@H](CO)NC(=O)[C@H](Cc1ccc(O)cc1)NC(=O)[C@H](CC(=O)O)NC(=O)[C@H](CO)NC(=O)[C@@H](NC(=O)[C@H](Cc1ccccc1)NC(=O)[C@@H](NC(=O)CNC(=O)[C@H](CCC(=O)O)NC(=O)C(C)(C)NC(=O)[C@@H](N)Cc1ccc(O)cc1)[C@@H](C)O)[C@@H](C)CC)C(=O)N[C@@H](C)C(=O)N[C@@H](CC(C)C)C(=O)N[C@@H](CC(=O)O)C(=O)N[C@@H](CCCCN)C(=O)N[C@@H](CCCCNC(=O)COCCOCCNC(=O)COCCOCCNC(=O)CC[C@H](NC(=O)CCCCCCCCCCCCCCCCC(=O)O)C(=O)O)C(=O)N[C@@H](Cc1c[nH]cn1)C(=O)N[C@@H](CCC(N)=O)C(=O)NC(C)(C)C(=O)N[C@@H](CC(=O)O)C(=O)N[C@@H](Cc1ccccc1)C(=O)N[C@H](C(=O)N[C@@H](CCC(=O)O)C(=O)N[C@@H](Cc1ccncc1)C(=O)N[C@@H](CC(C)C)C(=O)N[C@@H](CC(C)C)C(=O)N[C@@H](C)C(=O)NCC(=O)NCC(=O)N1CCC[C@H]1C(=O)N[C@@H](CO)C(=O)N[C@@H](CO)C(=O)NCC(=O)N[C@@H](C)C(=O)N1CCC[C@H]1C(=O)N1CCC[C@H]1C(=O)N1CCC[C@H]1C(=O)N[C@@H](CO)C(N)=O)C(C)C [Example 21] (H-Y[Aib]EGTFISDYSIALDKK([AEEA-AEEA-γGlu-C18 diacid])HQ[Aib]DFVE[4Pal]LLAGGPSSGAPPPS-NH2)	> 1530 nM	801 nM
CC[C@H](C)[C@H](NC(=O)[C@H](CO)NC(=O)[C@H](Cc1ccc(O)cc1)NC(=O)[C@H](CC(=O)O)NC(=O)[C@H](CO)NC(=O)[C@@H](NC(=O)[C@H](Cc1ccccc1)NC(=O)[C@@H](NC(=O)CNC(=O)[C@H](CCC(=O)O)NC(=O)C(C)(C)NC(=O)[C@@H](N)Cc1ccc(O)cc1)[C@@H](C)O)[C@@H](C)CC)C(=O)N[C@@H](CC(C)C)C(=O)N[C@@H](CC(C)C)C(=O)N[C@@H](CC(=O)O)C(=O)N[C@@H](CCCCN)C(=O)N[C@@H](CCCCNC(=O)COCCOCCNC(=O)COCCOCCNC(=O)CC[C@H](NC(=O)CCCCCCCCCCCCCCCCC(=O)O)C(=O)O)C(=O)N[C@@H](Cc1c[nH]cn1)C(=O)N[C@@H](CCC(N)=O)C(=O)NC(C)(C)C(=O)N[C@@H](CC(=O)O)C(=O)N[C@@H](Cc1ccccc1)C(=O)N[C@H](C(=O)N[C@@H](CCC(=O)O)C(=O)N[C@@H](Cc1ccncc1)C(=O)N[C@@H](CC(C)C)C(=O)N[C@@H](CC(C)C)C(=O)N[C@@H](C)C(=O)NCC(=O)NCC(=O)N1CCC[C@H]1C(=O)N[C@@H](CO)C(=O)N[C@@H](CO)C(=O)NCC(=O)N[C@@H](C)C(=O)N1CCC[C@H]1C(=O)N1CCC[C@H]1C(=O)N1CCC[C@H]1C(=O)N[C@@H](CO)C(N)=O)C(C)C [Example 22]	> 1380 nM	388 nM
CC[C@H](C)[C@H](NC(=O)[C@H](CO)NC(=O)[C@H](Cc1ccc(O)cc1)NC(=O)[C@H](CC(=O)O)NC(=O)[C@H](CO)NC(=O)[C@@H](NC(=O)[C@](C)(Cc1ccccc1)NC(=O)[C@@H](NC(=O)CNC(=O)[C@H](CCC(=O)O)NC(=O)C(C)(C)NC(=O)[C@@H](N)Cc1ccc(O)cc1)[C@@H](C)O)[C@@H](C)CC)C(=O)N[C@@H](C)C(=O)N[C@@H](CC(C)C)C(=O)N[C@@H](CC(=O)O)C(=O)N[C@@H](CCCCN)C(=O)N[C@@H](CCCCNC(=O)COCCOCCNC(=O)COCCOCCNC(=O)CC[C@H](NC(=O)CCCCCCCCCCCCCCCCC(=O)O)C(=O)O)C(=O)N[C@@H](Cc1c[nH]cn1)C(=O)N[C@@H](CCC(N)=O)C(=O)NC(C)(C)C(=O)N[C@@H](CC(=O)O)C(=O)N[C@@H](Cc1ccccc1)C(=O)N[C@H](C(=O)N[C@@H](CCC(=O)O)C(=O)N[C@@H](Cc1ccncc1)C(=O)N[C@@H](CC(C)C)C(=O)N[C@@H](CC(C)C)C(=O)N[C@@H](C)C(=O)NCC(=O)NCC(=O)N1CCC[C@H]1C(=O)N[C@@H](CO)C(=O)N[C@@H](CO)C(=O)NCC(=O)N[C@@H](C)C(=O)N1CCC[C@H]1C(=O)N1CCC[C@H]1C(=O)N1CCC[C@H]1C(=O)N[C@@H](CO)C(N)=O)C(C)C [Example 23] (H-Y[Aib]EGT[αMeF]ISDYSIALDKK([AEEA-AEEA-γGlu-C18 diacid])HQ[Aib]DFVE[4Pal]LLAGGPSSGAPPPS-NH2)	323 nM	251 nM
CC[C@H](C)[C@H](NC(=O)[C@H](Cc1ccccc1)NC(=O)[C@@H](NC(=O)CNC(=O)[C@H](CCC(=O)O)NC(=O)C(C)(C)NC(=O)[C@@H](N)Cc1ccc(O)cc1)[C@@H](C)O)C(=O)N[C@@H](CO)C(=O)N[C@@H](CC(=O)O)C(=O)N[C@@H](Cc1ccc(O)cc1)C(=O)N[C@@H](CO)C(=O)N[C@H](C(=O)NC(C)(C)C(=O)N[C@@H](CC(C)C)C(=O)N[C@@H](CC(=O)O)C(=O)N[C@@H](CCCCN)C(=O)N[C@@H](CCCCNC(=O)COCCOCCNC(=O)COCCOCCNC(=O)CC[C@H](NC(=O)CCCCCCCCCCCCCCCCC(=O)O)C(=O)O)C(=O)N[C@@H](Cc1c[nH]cn1)C(=O)N[C@@H](CCC(N)=O)C(=O)NC(C)(C)C(=O)N[C@@H](CC(=O)O)C(=O)N[C@@H](Cc1ccccc1)C(=O)N[C@H](C(=O)N[C@@H](CCC(=O)O)C(=O)N[C@@H](Cc1ccncc1)C(=O)N[C@@H](CC(C)C)C(=O)N[C@@H](CC(C)C)C(=O)N[C@@H](C)C(=O)NCC(=O)NCC(=O)N1CCC[C@H]1C(=O)N[C@@H](CO)C(=O)N[C@@H](CO)C(=O)NCC(=O)N[C@@H](C)C(=O)N1CCC[C@H]1C(=O)N1CCC[C@H]1C(=O)N1CCC[C@H]1C(=O)N[C@@H](CO)C(N)=O)C(C)C)[C@@H](C)CC [Example 24]	> 960 nM	729 nM
CC[C@H](C)[C@H](NC(=O)[C@H](CO)NC(=O)[C@H](Cc1ccc(O)cc1)NC(=O)[C@H](CC(=O)O)NC(=O)[C@H](CO)NC(=O)[C@@H](NC(=O)[C@](C)(Cc1ccccc1)NC(=O)[C@@H](NC(=O)CNC(=O)[C@H](CCC(=O)O)NC(=O)C(C)(C)NC(=O)[C@@H](N)Cc1ccc(O)cc1)[C@@H](C)O)[C@@H](C)CC)C(=O)N[C@@H](C)C(=O)N[C@@H](CC(C)C)C(=O)N[C@@H](CC(=O)O)C(=O)N[C@@H](CCCCN)C(=O)N[C@@H](CCCCNC(=O)COCCOCCNC(=O)COCCOCCNC(=O)CC[C@H](NC(=O)CCCCCCCCCCCCCCCCCCC(=O)O)C(=O)O)C(=O)N[C@@H](Cc1c[nH]cn1)C(=O)N[C@@H](CCC(N)=O)C(=O)NC(C)(C)C(=O)N[C@@H](CCC(=O)O)C(=O)N[C@@H](Cc1ccccc1)C(=O)N[C@H](C(=O)N[C@@H](CC(N)=O)C(=O)N[C@@H](Cc1c[nH]c2ccccc12)C(=O)N[C@@H](CC(C)C)C(=O)N[C@@H](CC(C)C)C(=O)N[C@@H](C)C(=O)NCC(=O)NCC(=O)N1CCC[C@H]1C(=O)N[C@@H](CO)C(=O)N[C@@H](CO)C(=O)NCC(=O)N[C@@H](C)C(=O)N1CCC[C@H]1C(=O)N1CCC[C@H]1C(=O)N1CCC[C@H]1C(=O)N[C@@H](CO)C(N)=O)C(C)C [Example 25] (H-Y[Aib]EGT[αMeF]ISDYSIALDKK([AEEA-AEEA-γGlu-C20 diacid])HQ[Aib]EFVNWLLAGGPSSGAPPPS-NH2)	101 nM	15.8 nM
CC[C@H](C)[C@H](NC(=O)[C@H](CO)NC(=O)[C@H](Cc1ccc(O)cc1)NC(=O)[C@H](CC(=O)O)NC(=O)[C@H](CO)NC(=O)[C@@H](NC(=O)[C@](C)(Cc1ccccc1F)NC(=O)[C@@H](NC(=O)CNC(=O)[C@H](CCC(=O)O)NC(=O)C(C)(C)NC(=O)[C@@H](N)Cc1ccc(O)cc1)[C@@H](C)O)[C@@H](C)CC)C(=O)N[C@@H](C)C(=O)N[C@@H](CC(C)C)C(=O)N[C@@H](CC(=O)O)C(=O)N[C@@H](CCCCN)C(=O)N[C@@H](CCCCNC(=O)COCCOCCNC(=O)COCCOCCNC(=O)CC[C@H](NC(=O)CCCCCCCCCCCCCCCCCCC(=O)O)C(=O)O)C(=O)N[C@@H](Cc1c[nH]cn1)C(=O)N[C@@H](CCC(N)=O)C(=O)NC(C)(C)C(=O)N[C@@H](CCC(=O)O)C(=O)N[C@@H](Cc1ccccc1)C(=O)N[C@H](C(=O)N[C@@H](CC(N)=O)C(=O)N[C@@H](Cc1c[nH]c2ccccc12)C(=O)N[C@@H](CC(C)C)C(=O)N[C@@H](CC(C)C)C(=O)N[C@@H](C)C(=O)NCC(=O)NCC(=O)N1CCC[C@H]1C(=O)N[C@@H](CO)C(=O)N[C@@H](CO)C(=O)NCC(=O)N[C@@H](C)C(=O)N1CCC[C@H]1C(=O)N1CCC[C@H]1C(=O)N1CCC[C@H]1C(=O)N[C@@H](CO)C(N)=O)C(C)C [Example 26] (H-Y[Aib]EGT[αMePhe(2-F)]ISDYSIALDKK([AEEA-AEEA-γGlu-C20 diacid])HQ[Aib]EFVNWLLAGGPSSGAPPPS-NH2)	74.1 nM	16.5 nM

— patent publication US12723063B2, “GIPR-agonist compounds” (Eli Lilly and Company, priority 2019, dated 2026)
